Laboratory results reported in patent US12331026B2 (NiKang Therapeutics, Inc., priority 2022, dated 2025).

Target: T1, CDK2 (Homo sapiens, UniProt P24941)
T1 construct: endogenous in cells; host or cells: OVCAR3 cells
Assay: Phospho-RB measurement in OVCAR3 cells (HTRF phospho-RB S807/811)
Assay type: cell-based
Details: phosphorylation of RB protein at S807/811, HTRF, 24 h compound treatment, 0.3 to 10,000 nM, read-out: pRb (uM)
Protocol: The ability of compounds of Formula (I) to inhibit CDK2 was determined in OVCAR3 cells. Phosphorylation of RB protein at S807/811 were measured using HTRF phospho-RB cellular kits (Cat #64RBS807PEG) from Cisbio.
On Day 1, OVCAR3 cells were seeded into 96-well tissue-culture treated plates at 20,000 cells/well in 200 μL and incubated overnight at 37° C. in CO2 atmosphere. On Day 2, the cells were treated with test compounds at concentrations from 0.3 to 10,000 nM using HP D300 digital dispenser. Twenty-four hours after compound treatment, cell culture media was removed by flicking the plate and tapping the plate against clean paper towel. Immediately 30 μL 1× lysis buffer was supplemented from the kit and the plate was incubated at room temperature on shaker for 30 min. After homogenization by pipetting up and down, 8 μL cell lysate from 96-well cell culture plate was transferred to 384-well small volume white detection plate. 2 μL premixed detection solution was added and the plate was covered with sealer. To prepare the detection solution, d2 conjugated-phospho-RB antibody and Eu-cryptate conjugated phosphor-RB antibody were diluted into detection buffer following manufacturer's instruction.
Detection plates were incubated for 4 h at room temperature and read on ClarioStar (BMG Labtech) in TR-FRET mode ([…]). The TR-FRET ratio (665 nM1/620 nM) was plotted against the compound concentration and normalized to DMSO controls. Half maximal inhibition concentration (IC50) values are calculated with a four-parameter logistic fit using GraphPad Prism (version 8; La Jolla, CA).

IC50 [µM]	SMILES
0.15	O=S1(=O)CC2(CC(Nc3nccc(-c4sc(N5C6CCC5COC6)nc4-c4cccc(NS(=O)(=O)c5c(F)cccc5F)c4F)n3)C2)C1 [Example 2, N-(3-(2-(3-oxa-8-azabicyclo[3.2.1]octan-8-yl)-5-(2-((2,2-dioxido-2-thiaspiro[3.3]heptan-6-yl)amino)pyrimidin-4-yl)thiazol-4-yl)-2-fluorophenyl)-2,6-difluorobenzenesulfonamide]
0.12	O=S1(=O)CC2(CC(Nc3nccc(-c4sc(C56CC(C5)C6)nc4-c4cccc(NS(=O)(=O)c5c(F)cccc5F)c4F)n3)C2)C1 [Example 3, N-(3-(2-(bicyclo[1.1.1]pentan-1-yl)-5-(2-((2,2-dioxido-2-thiaspiro[3.3]heptan-6-yl)amino)pyrimidin-4-yl)thiazol-4-yl)-2-fluorophenyl)-2,6-difluorobenzenesulfonamide]
0.13	C[C@H]1COC[C@H](C)N1c1nc(-c2cccc(NS(=O)(=O)c3c(F)cccc3F)c2F)c(-c2ccnc(NC3CC4(C3)CS(=O)(=O)C4)n2)s1 [Example 4, N-(3-(2-((3S,5S)-3,5-dimethylmorpholino)-5-(2-((2,2-dioxido-2-thiaspiro[3.3]heptan-6-yl)amino)pyrimidin-4-yl)thiazol-4-yl)-2-fluorophenyl)-2,6-difluorobenzenesulfonamide]
0.08	O=S1(=O)CC2(CC(Nc3nccc(-c4sc(C56CC7CC(CC(C7)C5)C6)nc4-c4cccc(NS(=O)(=O)c5c(F)cccc5F)c4F)n3)C2)C1 [Example 6, N-(3-(2-((3r,5r,7r)-adamantan-1-yl)-5-(2-((2,2-dioxido-2-thiaspiro[3.3]heptan-6-yl)amino)pyrimidin-4-yl)thiazol-4-yl)-2-fluorophenyl)-2,6-difluorobenzenesulfonamide]
0.39	O=S1(=O)CC2(CC(Nc3nccc(-c4sc(C56CC(F)(C5)C6)nc4-c4cccc(NS(=O)(=O)c5c(F)cccc5F)c4F)n3)C2)C1 [Example 7, N-(3-(5-(2-((2,2-dioxido-2-thiaspiro[3.3]heptan-6-yl)amino)pyrimidin-4-yl)-2-(3-fluorobicyclo[1.1.1]pentan-1-yl)thiazol-4-yl)-2-fluorophenyl)-2,6-difluorobenzenesulfonamide]
0.1	O=S1(=O)CC2(CC(Nc3nccc(-c4sc(C56CCC(CC5)C6)nc4-c4cccc(NS(=O)(=O)c5c(F)cccc5F)c4F)n3)C2)C1 [Example 9, N-(3-(2-(bicyclo[2.2.1]heptan-1-yl)-5-(2-((2,2-dioxido-2-thiaspiro[3.3]heptan-6-yl)amino)pyrimidin-4-yl)thiazol-4-yl)-2-fluorophenyl)-2,6-difluorobenzenesulfonamide]
0.055	O=S1(=O)CC2(CC(Nc3nccc(-c4sc(C56CCC(CC5)CC6)nc4-c4cccc(NS(=O)(=O)c5c(F)cccc5F)c4F)n3)C2)C1 [Example 10, N-(3-(2-(bicyclo[2.2.2]octan-1-yl)-5-(2-((2,2-dioxido-2-thiaspiro[3.3]heptan-6-yl)amino)pyrimidin-4-yl)thiazol-4-yl)-2-fluorophenyl)-2,6-difluorobenzenesulfonamide]
0.068	O=S1(=O)CC2(CC(Nc3nccc(-c4sc(N5C6CCC5CC(F)(F)C6)nc4-c4cccc(NS(=O)(=O)c5c(F)cccc5F)c4F)n3)C2)C1 [Example 12, N-(3-(2-(3,3-difluoro-8-azabicyclo[3.2.1]octan-8-yl)-5-(2-((2,2-dioxido-2-thiaspiro[3.3]heptan-6-yl)amino)pyrimidin-4-yl)thiazol-4-yl)-2-fluorophenyl)-2,6-difluorobenzenesulfonamide]
0.73	CC(C)(C)OC(=O)N1CCC(C)(c2nc(-c3cccc(NS(=O)(=O)c4c(F)cccc4F)c3F)c(-c3ccnc(NC4CC5(C4)CS(=O)(=O)C5)n3)s2)CC1 [Example 13, tert-butyl 4-(4-(3-((2,6-difluorophenyl)sulfonamido)-2-fluorophenyl)-5-(2-((2,2-dioxido-2-thiaspiro[3.3]heptan-6-yl)amino)pyrimidin-4-yl)thiazol-2-yl)-4-methylpiperidine-1-carboxylate]
18.1	CC1(c2nc(-c3cccc(NS(=O)(=O)c4c(F)cccc4F)c3F)c(-c3ccnc(NC4CC5(C4)CS(=O)(=O)C5)n3)s2)CCNCC1 [Example 14, N-(3-(5-(2-((2,2-dioxido-2-thiaspiro[3.3]heptan-6-yl)amino)pyrimidin-4-yl)-2-(4-methylpiperidin-4-yl)thiazol-4-yl)-2-fluorophenyl)-2,6-difluorobenzenesulfonamide]
3.2	CN1CCC(C)(c2nc(-c3cccc(NS(=O)(=O)c4c(F)cccc4F)c3F)c(-c3ccnc(NC4CC5(C4)CS(=O)(=O)C5)n3)s2)CC1 [Example 15, N-(3-(2-(1,4-dimethylpiperidin-4-yl)-5-(2-((2,2-dioxido-2-thiaspiro[3.3]heptan-6-yl)amino)pyrimidin-4-yl)thiazol-4-yl)-2-fluorophenyl)-2,6-difluorobenzenesulfonamide]
0.13	O=S1(=O)CC2(CC(Nc3nccc(-c4sc(C5(C(F)F)CC5)nc4-c4cccc(NS(=O)(=O)c5c(F)cccc5F)c4F)n3)C2)C1 [Example 16, N-(3-(2-(1-(difluoromethyl)cyclopropyl)-5-(2-((2,2-dioxido-2-thiaspiro[3.3]heptan-6-yl)amino)pyrimidin-4-yl)thiazol-4-yl)-2-fluorophenyl)-2,6-difluorobenzenesulfonamide]
0.48	O=C1CC2CCC(C1)N2c1nc(-c2cccc(NS(=O)(=O)c3c(F)cccc3F)c2F)c(-c2ccnc(NC3CC4(C3)CS(=O)(=O)C4)n2)s1 [Example 17, N-(3-(5-(2-((2,2-dioxido-2-thiaspiro[3.3]heptan-6-yl)amino)pyrimidin-4-yl)-2-(3-oxo-8-azabicyclo[3.2.1]octan-8-yl)thiazol-4-yl)-2-fluorophenyl)-2,6-difluorobenzenesulfonamide]
0.079	O=S1(=O)CC2(CC(Nc3nccc(-c4sc(N5CC6CCC5CC6)nc4-c4cccc(NS(=O)(=O)c5c(F)cccc5F)c4F)n3)C2)C1 [Example 18, N-(3-(2-(2-azabicyclo[2.2.2]octan-2-yl)-5-(2-((2,2-dioxido-2-thiaspiro[3.3]heptan-6-yl)amino)pyrimidin-4-yl)thiazol-4-yl)-2-fluorophenyl)-2,6-difluorobenzenesulfonamide]
0.19	O=S1(=O)CC2(CC(Nc3nccc(-c4sc(N5C6CCCC5CC6)nc4-c4cccc(NS(=O)(=O)c5c(F)cccc5F)c4F)n3)C2)C1 [Example 19, N-(3-(2-(8-azabicyclo[3.2.1]octan-8-yl)-5-(2-((2,2-dioxido-2-thiaspiro[3.3]heptan-6-yl)amino)pyrimidin-4-yl)thiazol-4-yl)-2-fluorophenyl)-2,6-difluorobenzenesulfonamide]
0.24	O=S1(=O)CC2(CC(Nc3nccc(-c4sc(C56CCC(C5)C6)nc4-c4cccc(NS(=O)(=O)c5c(F)cccc5F)c4F)n3)C2)C1 [Example 20]
0.24	O=S1(=O)CC2(CC(Nc3nccc(-c4sc(N5CC6CCC(CC6)C5)nc4-c4cccc(NS(=O)(=O)c5c(F)cccc5F)c4F)n3)C2)C1 [Example 21]

SMILES	IC50 [µM]
CS(=O)(=O)C1CCC(Nc2nccc(-c3sc(C45CC(Cl)(C4)C5)nc3-c3cccc(NS(=O)(=O)c4c(F)cccc4C(F)(F)F)c3F)n2)CC1 (stereo not drawn) [Example 8, N-(3-(2-(3-chlorobicyclo[1.1.1]pentan-1-yl)-5-(2-(((1s,4s)-4-(methylsulfonyl)cyclohexyl)amino)pyrimidin-4-yl)thiazol-4-yl)-2-fluorophenyl)-2-fluoro-6-(trifluoromethyl)benzenesulfonamide]	0.24
